Structures are written as SMILES. “Also recorded” adds a separate entry of the source.

The test system of assay [1] is L1210 murine leukemia cells. Briefly: Whole cell internalization assay, 8 hr timelapse imaging. The format is cell-based, mouse. As to conditions: 100 μM manganese, bone marrow derived macrophages. The protocol: For timelapse imaging, 30,000 primary bone marrow derived macrophages infected with GFP-CAAX were plated in a 96-well glass bottom MatriPlate (Brooks, Catalog #MGB096-1-2-LG-L). 2 hours prior to imaging, cells were washed into serum-free, phenol free DMEM for imaging. Manganese (SigmaAldrich, M8054) was added at 100 μM 30 min prior to imaging. When indicated, CD47 function-blocking antibody clone miap301 (Biolegend, 127520) was used at […]. 100,000 H2B-mCherry expressing L1210 cells were added and the co-culture was imaged for 8 hr.

For another assay, the system named is RAW264.7 macrophages. Briefly: Engulfment of supported lipid bilayer-coated silica beads by macrophages (confocal quantification). The format is cell-based. Particulars: for engulfment of IgG-coated beads in the absence of CD47: manganese treatment, IgG titration. How it is done:
8.6×10^8 silica beads with a 5.02 μm diameter (10 μl of 10% solids, Bangs Labs, Catalog #SS05N) were washed three times with PBS, mixed with 1 mM SUVs in PBS and incubated at room temperature for 0.5-2 hours with end-over-end mixing to allow for bilayer formation. Beads were then washed three times with PBS to remove excess SUVs and incubated in 100 μl of 0.2% casein (Sigma, catalog #C5890) in PBS for 15 min before protein coupling. […] Purified CD47^ext-His10 was added at […]. Proteins were coupled to the bilayer for 1 hour at room temperature with end-over-end mixing.
Unless otherwise noted, macrophages remained in culture media (DMEM with 10% heat inactivated serum) throughout the experiment. ˜8×10^5 beads were added to well and engulfment was allowed to proceed for 30 min. Cells were fixed with 4% PFA and stained with CellMask (ThermoFisher, catalog #C10045) without membrane permeabilization to label cell boundaries.

Assay [2] has as its system complement-opsonized CD47+ mouse red blood cells. As to conditions: 1 mM manganese. How it is done:
For the mouse red blood cell internalization assay, 30,000 RAW264.7 macrophages (ATCC) were plated in one well of a 96-well glass bottom MatriPlate (Brooks, MGB096-1-2-LG-L) between 12 and 24 hours prior to the experiment. Mouse red blood cells (RBCs) (Innovative Research, 88R-M001) were washed into PBS and stained with CSFE (Thermo Fisher, C34554) or Alexa Fluor 488 NHS Ester (ThermoFisher, A20000) for 1 hr at room temperature. RBCs were then opsonized with C3bi as previously described (Chow et al., 2004). Briefly, RBCs were incubated with anti-mouse IgM (MyBioSource, MBS524107) for 1 hour at 37° C. A portion of RBCs were separated for IgM controls, and the remaining RBCs were incubated with C5 deficient serum (Sigma-Aldrich, C1163) for 1 hour at 37° C. Macrophages were washed into serum-free HEPES imaging buffer and incubated with 150 ng/mL PMA and 1 mM Manganese or water. ˜1×10^6 RBCs were added to each well and engulfment was allowed to proceed for 1 hour in incubator. Cells were washed with PBS, unengulfed RBCs were lysed with water for 2 min, and cells were fixed with 4% PFA. Remaining non-lysed, non-engulfed RBCs were stained with APC anti-iC3b antibody (Biolegend, 1:200 dilution, 846106) for 30 minutes. Macrophages were stained with CellMask orange (ThermoFisher, 1:5,000 dilution) and Hoechst (Invitrogen, H3570, 1:1,000 dilution) for 15 minutes. […]

Take `[Mn+2]` [manganese, Manganese]: the “macrophages engulfing a cancer cell” value in assay [1] is recorded as “increased the ability of macrophages to engulf cancer cells; also recorded: allowed for engulfment of whole cancer cells; also recorded: can drive engulfment of whole cancer cells”. The “engulfment of IgG beads with versus without CD47” value with RAW264.7 macrophages (macrophages treated with 1 mM manganese, beads with IgG and CD47 or non-signaling CD47 F37D,T115K) is “engulfed beads with a similar efficiency whether or not CD47 was conjugated to the supported lipid bilayer”. The results for the “engulfment of IgG-coated beads in the absence of CD47” value with RAW264.7 macrophages and in the assay on RAW264.7 macrophages (listed as Mn2+) were “did not trigger bead engulfment on its own or dramatically enhance engulfment of IgG-coated beads in the absence of CD47” and “did not dramatically enhance engulfment”, respectively. Also, the “bead engulfment triggered on its own” value in the assay with RAW264.7 macrophages (manganese, no IgG) is “did not trigger bead engulfment on its own”. In addition, the “engulfment of control IgM-treated RBCs” value in assay [2] is recorded as “not control IgM-treated RBCs”. For the same molecule, in assay [2] (RAW264.7 macrophages, 1 hour), the “engulfment of complement-opsonized RBCs” value was “dramatically increased engulfment of complement-opsonized RBCs”.

(Values after patent US20220280486A1, “COMBINED CANCER THERAPY INVOLVING CHEMICAL ACTIVATION OF INTEGRINS AND TARGETED CELL IMMUNOTHERAPY” (The Regents of the University of California, priority 2019, published 2022).)
